Experiments:
[1] = test system: Renca cells (renal cell carcinoma); experiment: Effect of isomers on in vivo tumour growth in mice challenged with Renca cells (Example 7); design: species or system Balb/c mice
Description: This assay was made in order to check the effect of each stereoisomer on in vivo tumour growth in mice challenged with Renca cells. Their effect was compared with placebo. The stereoisomers assayed were:
Renca is a renal cell carcinoma originated in Balb/c mouse strain, and therefore syngeneic in mice with Balb/c genetic background [Melder R J et al., Cancer Immunol. Immunother., 2005, 54:535-547; Felluga B et al., 1969, J. Natl. Cancer Inst. 43:319-333]. Renca is considered a moderate immunogenic tumour and used as suitable model for testing immunointervention approaches [Salup R R, et al., 1992, The Journal of Urology, 147:1120-1123].
Renca cells (CLS, Eppelheim, Germany) were maintained in vitro by serial passages every 3-4 days. Cultures were performed with RPMI medium medium (RPMI, 10% foetal calf serum, 2 mM L-glutamine, non essential amino acids, 1 mM sodium pyruvate, 20 mM HEPES, 80 μg/mL gentamycin; all of them were purchased from Sigma, St. Louis, Mo., USA) by seeding 5×10^6 cells onto 75 cm^2 culture flasks. Tumour cells collected from 48 hour cultures upon trypsinization (Sigma, St. Louis, Mo., USA) were used as source of Renca cells for the studies described below.
Each isomer was tested at the dose levels of 260 ng administered on days 6, 7 and 14 after tumour inoculation.
The treatments were given by intraperitoneal route (i.p.). The volume inoculated was 0.2 mL/animal. This route was chosen because it is the one described in the original method [Pérez S, et al., 2003, Clinical Cancer Research. 9:5776-5785].
Tumours were established by subcutaneous inoculation in the right hind flank. Mice (Balb/c) were inoculated with 0.2 mL containing 10^5 viable Renca cells. The day of subcutaneous inoculation will be considered Day 0 of the test.
Mice were observed daily and the tumour size recorded twice a week. This was carried out by measuring two perpendicular diameters (L/W) with a calliper. These measures were used to obtain both tumour surface and volume: Tumour surface=L×W(mm^2) Tumour volume=L×W^2×½(mm^3)
(§1) Results were expressed as single values and/or as the mean±SD or median from each experimental group.
A case-control study was performed with treated and control mice in order to determine whether differences between isomers and administration of placebo were present. […] The U-test of Mann Withney was chosen for being one of the better known non-parametrical tests, anyway, results for this test are equivalent both to those of Wilcoxon's sum of ranges and Kruskal-Wallis two-groups test.
Due to the high dispersion of data, outlayers (animals beyond percentile 25 or above percentile 75 for tumour surface at day 25) were excluded of the study.

[2] = test system: ASB XIV cells (pulmonary squamous cell carcinoma); experiment: Effect of isomers and BLAS on in vivo tumour growth, ASB XIV tumours (Example 8); design: species or system Balb/c mice; settings: for Tumour surface, overall values (Mean) / Tumour surface, overall values (Median) / Tumour volume, overall values (Mean) / Tumour volume, overall values (Median): 260 ng/mouse i.p. days 6, 7 and 14
Description: This assay was made in order to compare the effect of each stereoisomer on in vivo tumour growth in mice with the effect of the mixture of all of them challenged with ASB XIV tumours. The stereoisomers assayed were the same as in example 7 above plus a mixture of all of them (BLAS). The equipment (when needed), reagents, dose, vehicle and route and volume of administration were the same as in example 7.
ASB XIV is a pulmonary squamous cell carcinoma originated in Balb/c mouse strain, and therefore syngeneic in mice with Balb/c genetic background.
ASB XIV cells (CLS, Eppelheim, Germany) were maintained in vitro by serial passages every 3-4 days. Cultures were performed with RPMI medium medium (RPMI, 10% foetal calf serum, 2 mM L-glutamine, non essential aminoacids, 1 mM sodium pyruvate, 20 mM HEPES, 80 μg/mL gentamycin; all of them were purchased from Sigma, St. Louis, Mo., USA) by seeding 5×10^6 cells onto 75 cm^2 culture flasks. Tumour cells collected from 48 hour cultures upon trypsinization (Sigma, St. Louis, Mo., USA) were used as source of ASB XIV cells in the present example.
• BLAS (mixture of isomers 1, 2, 3 and 4) at a concentration of 65 μg/mL in sterile physiological saline. Isomer 1 (9b) at a concentration of 65 μg/mL in sterile physiological saline. • Isomer 2 (9c) at a concentration of 65 μg/mL in sterile physiological saline. • Isomer 3 (9a) at a concentration of 65 μg/mL in sterile physiological saline. • Isomer 4 (9d) at a concentration of 65 μg/mL in sterile physiological saline. Placebo
Tumours were established by subcutaneous inoculation in the right hind flank. Mice (Balb/c) were inoculated with 0.2 mL containing 2×10^5 viable ASB XIV cells. The day of subcutaneous inoculation will be considered Day 0 of the test.
Mice were observed daily and the tumour size recorded twice a week. This was carried out by measuring two perpendicular diameters (d1/d2) with a calliper. These measures were used to obtain both tumour surface and volume: Tumour surface=d1×d2(mm^2) Tumour volume=d1×d2^2×½(mm^3)
as §1
A case-control study was performed with treated and control mice in order to determine whether differences between BLAS or each diferent stereoisomer and administration of placebo were present. […] The U-test of Mann Withney was chosen for being one of the better known non-parametrical tests, anyway, results for this test are equivalent both to those of Wilcoxon's sum of ranges and Kruskal-Wallis two-groups test.
Due to the high dispersion of data, outlayers (animals beyond percentile 10 or above percentile 90 for tumour surface at day 33) were excluded of the study.

[3] = day 0 after tumour inoculation, 260 ng/mouse i.p. days 6, 7, 14
[4] = day 11 after tumour inoculation, 260 ng/mouse i.p. days 6, 7, 14
[5] = day 14 after tumour inoculation, 260 ng/mouse i.p. days 6, 7, 14
[6] = day 12 after tumour inoculation
[7] = day 15 after tumour inoculation
[8] = day 19 after tumour inoculation
[9] = day 22 after tumour inoculation
[10] = day 26 after tumour inoculation
[11] = day 29 after tumour inoculation
[12] = day 33 after tumour inoculation

Br.N[C@]1(C[n+]2ccccc2)C[C@@H](C(=O)O)NC1=O.[Br-] (single isomer, unassigned; isomer 3) [isomer 3, 3S,5S-1-(3-Amino-5-carboxy-2-oxopyrrolidin-3-ylmethyl)pyridinium bromide hidrobromide]
Inhibition of the in vivo growth of the renal cell carcinoma (Renca), in words ([1]; 260 ng i.p. days 6, 7, 14): inhibit the in vivo growth | Tumour surface, overall values (Mean) [1, 3]: 0 mm^2 | Tumour surface, overall values (Median) [1, 3]: 0 mm^2 | Tumour volume, overall values (Mean) [1, 3]: 0 mm^3 | Tumour volume, overall values (Median) [1, 3]: 0 mm^3 | Tumour surface, overall values (Mean) [1, 4]: 0.3 mm^2 | Tumour surface, overall values (Median) [1, 4]: 0 mm^2 | Tumour volume, overall values (Median) [1, 4]: 0 mm^3 | Tumour surface, overall values (Median) [1, 5]: 4 mm^2 | Tumour volume, overall values (Median) [1, 5]: 4 mm^3 | Differences in Renca tumour growth rate vs. placebo, statistical significance p (Mann-Whitney U test) ([1]; either in surface or volume, days 18th and 25th of tumour development): < 0.05 | Inhibition of the in vivo growth of the lung carcinoma ASB XIV, in words ([2]; 260 ng i.p. days 6, 7 and 14): inhibit the in vivo growth | Tumour surface, overall values (Mean) ([2]; day 0 after tumour inoculation): 0 mm^2 | Tumour surface, overall values (Median) ([2]; day 0 after tumour inoculation): 0 mm^2 | Tumour volume, overall values (Mean) ([2]; day 0 after tumour inoculation): 0 mm^3 | Tumour volume, overall values (Median) ([2]; day 0 after tumour inoculation): 0 mm^3 | Tumour surface, overall values (Mean) ([2]; day 8 after tumour inoculation): 0 mm^2 | Tumour surface, overall values (Median) ([2]; day 8 after tumour inoculation): 0 mm^2 | Tumour volume, overall values (Mean) ([2]; day 8 after tumour inoculation): 0 mm^3 | Tumour volume, overall values (Median) ([2]; day 8 after tumour inoculation): 0 mm^3 | Tumour surface, overall values (Mean) [2, 6]: 0.29 mm^2 | Tumour surface, overall values (Median) [2, 6]: 0 mm^2 | Tumour volume, overall values (Mean) [2, 6]: 0.44 mm^3 | Tumour volume, overall values (Median) [2, 6]: 0 mm^3 | Tumour surface, overall values (Mean) [2, 7]: 2.81 mm^2 | Tumour surface, overall values (Median) [2, 7]: 0 mm^2 | Tumour volume, overall values (Mean) [2, 7]: 6.31 mm^3 | Tumour volume, overall values (Median) [2, 7]: 0 mm^3 | Tumour surface, overall values (Mean) [2, 8]: 15.16 mm^2 | Tumour surface, overall values (Median) [2, 8]: 9 mm^2 | Tumour volume, overall values (Mean) [2, 8]: 44.13 mm^3 | Tumour volume, overall values (Median) [2, 8]: 13.5 mm^3 | Tumour surface, overall values (Mean) [2, 9]: 33.16 mm^2 | Tumour surface, overall values (Median) [2, 9]: 25 mm^2 | Tumour volume, overall values (Mean) [2, 9]: 116.65 mm^3 | Tumour volume, overall values (Median) [2, 9]: 62.5 mm^3 | Tumour surface, overall values (Mean) [2, 10]: 68.67 mm^2 | Tumour surface, overall values (Median) [2, 10]: 64 mm^2 | Tumour volume, overall values (Mean) [2, 10]: 337.18 mm^3 | Tumour volume, overall values (Median) [2, 10]: 256 mm^3 | Tumour surface, overall values (Mean) [2, 11]: 94.61 mm^2 | Tumour surface, overall values (Median) [2, 11]: 99 mm^2 | Tumour volume, overall values (Mean) [2, 11]: 529.37 mm^3 | Tumour volume, overall values (Median) [2, 11]: 445.5 mm^3 | Tumour surface, overall values (Mean) [2, 12]: 131.35 mm^2 | Tumour surface, overall values (Median) [2, 12]: 140 mm^2 | Tumour volume, overall values (Mean) [2, 12]: 848.87 mm^3 | Tumour volume, overall values (Median) [2, 12]: 700 mm^3 | Differences in ASB XIV tumour growth rate vs. placebo, statistical significance p (Mann-Whitney U test) ([2]; either in surface or volume, all days scored after the day 26th): < 0.05
